# Test results: patent US9303249B2, “High concentration α-glucosidase compositions for the treatment of Pompe disease” (Amicus Therapeutics, Inc., priority 2012, dated 2016)
# Test system: GAA KO mice
# Assay: Tissue glycogen reduction after repeat SQ with varying 1-DNJ (Example 16)
# Format: in vivo, mouse
# Conditions: Lumizyme 20 mg/kg SQ alone, 4 administrations, 14 days after last
# Protocol: 14-week old male GAA KO mice in groups of 7 were used in the present study. Each group of mice was administered one of the following treatments:
# Each of the treatments was administered to their respective treatment group for a period of 2 weeks. The treatments were administered on Monday and Thursday of each week. SQ injections were administered between the shoulder blades of each mouse receiving treatment. A total of 4 doses were administered to each study animal.
# Tissue samples were collected to determine rhGAA uptake 3 days following the last dose of the study (i.e., 3 days post dose 4). Tissue samples included heart, tongue, diaphragm, triceps, quads, gastrocnemius, ventral skin and dorsal skin from the SQ injection site. Tissue samples were also collected to determine glycogen concentration 14 days following the last dose of the study (i.e., 14 days post dose 4).
# FIGS. 47-54 show tissue GAA activity 3 days following the final administration, and glycogen levels 14 days following the final administration. GAA activities in tissues were determined using a 4-MUG fluorogenic substrate assay. Glycogen levels were determined using a glycogen assay (see Example 9 for method). Lumizyme® alone administered subcutaneously led to uptake of enzyme in all investigated tissues following repeat administrations.
substance,measurement,setting,value
"Lumizyme®: alglucosidase alfa, recombinant human acid α-glucosidase from Genzyme Corporation",Glycogen (% Reduction),Biceps,45%
same,Glycogen (% Reduction),Diaphragm,8%
same,Glycogen (% Reduction),Gastrocnemius,10%
same,Glycogen (% Reduction),Heart,15%
same,Glycogen (% Reduction),Quadriceps,9%
same,Glycogen (% Reduction),Skin,15%
same,Glycogen (% Reduction),Tongue,10%
same,Glycogen (% Reduction),Triceps,64%
